Results taken from patent US10899710B2, “Pyridines and their use in the treatment of cancer” (The United States of America, as represented by the …, priority 2015, dated 2021).
Where a name gives a salt, the structure may show the parent alone.

Assays:
[1] = tested on: SK-MEL-5; experiment: Growth inhibition GI50, SK-MEL-5; assay type: cell-based; details: Homo sapiens, Melanoma
Procedure: (§1) Cell lines were plated 2000 cells/well in 96-well black optical plates in the presence of 10% FBS media containing 25 nM selenite. The following day cells were treated with various concentrations of the compound of Example 1 (0.1% DMSO final) and incubated for 72 hrs. After the incubation Cell-Quanti Blue reagent was added to each well and incubated for additional 3 hrs. Fluorescence was read ex:530 nm/em:590 nm, and percent of viability was determined using DMSO vehicle and no cell (blank) controls.
(§2) Further results obtained in similar experiments were as indicated below (GI50 refers to concentration of compound yielding 50% growth inhibition; E denotes an exponent to the base 10).

[2] = molecular target: T1, gluthathione reductase (GR) (Homo sapiens, UniProt P00390); experiment: Inhibition of recombinant GR (GSSG assay); assay type: biochemical
T1 sequence (P00390 44-522): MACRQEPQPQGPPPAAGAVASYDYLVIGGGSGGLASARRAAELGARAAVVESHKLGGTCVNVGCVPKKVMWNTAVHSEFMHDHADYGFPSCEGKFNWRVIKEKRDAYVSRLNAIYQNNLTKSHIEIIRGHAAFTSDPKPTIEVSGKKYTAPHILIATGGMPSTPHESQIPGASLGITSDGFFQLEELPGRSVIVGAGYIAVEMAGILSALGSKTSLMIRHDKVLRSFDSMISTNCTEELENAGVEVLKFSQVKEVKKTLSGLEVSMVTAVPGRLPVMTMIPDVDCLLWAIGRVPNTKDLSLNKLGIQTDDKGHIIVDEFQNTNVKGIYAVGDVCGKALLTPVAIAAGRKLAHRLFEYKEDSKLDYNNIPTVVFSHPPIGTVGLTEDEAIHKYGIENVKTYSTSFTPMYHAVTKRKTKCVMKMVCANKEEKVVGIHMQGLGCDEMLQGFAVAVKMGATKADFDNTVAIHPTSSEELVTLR
Procedure: Small molecule inhibition of recombinant thioredoxin reductase 1 (TrxR1) and gluthathione reductase (GR) was examined in 96-well plate format. 15 nM TrxR1 was incubated in the presence of 250 μM NADPH, 0.1 mg/ml BSA, and various concentrations of the compound of Example 1 (1% DMSO final) in 50 mM Tris (pH 7.5) and 2 mM EDTA buffer for 15 minutes. Following the incubation period, 2.5 mM DTNB was added to each well and the change in O.D. at 412 nm was followed. Percent activity was determined using DMSO vehicle and no TrxR1 (blank) controls. 2 nM GR was incubated in the presence of 250 μM NADPH, 0.1 mg/ml BSA, and various concentrations of compounds (1% DMSO final) in 50 mM Tris (pH 7.5) and 2 mM EDTA buffer for 15 minutes. Following the incubation period, 1 mM GSSG was added to each well and the change in O.D. at 340 nm was followed. Percent activity was determined using DMSO vehicle and no GR (blank) controls.

[3] = tested on: PC-3; experiment: Growth inhibition GI50, PC-3; assay type: cell-based; details: Homo sapiens, Prostate Cancer
Procedure: as §1, §2

[4] = tested on: ACHN; experiment: Growth inhibition GI50, ACHN; assay type: cell-based; details: Homo sapiens, Renal Cancer
Procedure: as §1, §2

[5] = tested on: IGROV1; experiment: Growth inhibition GI50, IGROV1; assay type: cell-based; details: Homo sapiens, IGROV-1, Ovarian Cancer
Procedure: as §1, §2

[6] = tested on: FaDu cell line; experiment: Cell viability inhibition, FaDu cell line; assay type: cell-based; details: Homo sapiens, Biological Example 4, 72 hrs
Procedure: as §1
Using the assays described in Biological Example 1 to assess inhibition of recombinant TrxR1 and GR, the following IC50 values were obtained for the examples described herein. Further, following the protocol described in Biological Example 2, the following IC50 values were obtained for inhibition of cell viability using the FaDu cell line.

[7] = tested on: SK-OV-3; experiment: Growth inhibition GI50, SK-OV-3; assay type: cell-based; details: Homo sapiens, Ovarian Cancer
Procedure: as §1, §2

[8] = tested on: RPMI-8226; experiment: Growth inhibition GI50, RPMI-8226; assay type: cell-based; details: Homo sapiens, Leukemia
Procedure: as §1, §2

[9] = tested on: HOP-92; experiment: Growth inhibition GI50, HOP-92; assay type: cell-based; details: Homo sapiens, Non-Small Cell Lung Cancer
Procedure: as §1, §2

[10] = tested on: OVCAR-5; experiment: Growth inhibition GI50, OVCAR-5; assay type: cell-based; details: Homo sapiens, Ovarian Cancer
Procedure: as §1, §2

[11] = tested on: COLO 205; experiment: Growth inhibition GI50, COLO 205; assay type: cell-based; details: Homo sapiens, Colon Cancer
Procedure: as §1, §2

[12] = tested on: NCI-H522; experiment: Growth inhibition GI50, NCI-H522; assay type: cell-based; details: Homo sapiens, Non-Small Cell Lung Cancer
Procedure: as §1, §2

[13] = tested on: MCF7; experiment: Growth inhibition GI50, MCF7; assay type: cell-based; details: Homo sapiens, Breast Cancer
Procedure: as §1, §2

[14] = tested on: 786-0; experiment: Growth inhibition GI50, 786-0; assay type: cell-based; details: Homo sapiens, Renal Cancer
Procedure: as §1, §2

[15] = tested on: CCRF-CEM; experiment: Growth inhibition GI50, CCRF-CEM; assay type: cell-based; details: Homo sapiens, Leukemia
Procedure: as §1, §2

[16] = tested on: A549/ATCC; experiment: Growth inhibition GI50, A549/ATCC; assay type: cell-based; details: Homo sapiens, Non-Small Cell Lung Cancer
Procedure: as §1, §2

[17] = tested on: RXF 393; experiment: Growth inhibition GI50, RXF 393; assay type: cell-based; details: Homo sapiens, Renal Cancer
Procedure: as §1, §2

[18] = tested on: T-47D; experiment: Growth inhibition GI50, T-47D; assay type: cell-based; details: Homo sapiens, T47D, Breast Cancer
Procedure: as §1, §2

[19] = tested on: TK-10; experiment: Growth inhibition GI50, TK-10; assay type: cell-based; details: Homo sapiens, Renal Cancer
Procedure: as §1, §2

[20] = tested on: SNB-19; experiment: Growth inhibition GI50, SNB-19; assay type: cell-based; details: Homo sapiens, CNS Cancer
Procedure: as §1, §2

[21] = tested on: MDA-MB-435; experiment: Growth inhibition GI50, MDA-MB-435; assay type: cell-based; details: Homo sapiens, Melanoma
Procedure: as §1, §2

[22] = tested on: SF-539; experiment: Growth inhibition GI50, SF-539; assay type: cell-based; details: Homo sapiens, CNS Cancer
Procedure: as §1, §2

[23] = tested on: HT29; experiment: Growth inhibition GI50, HT29; assay type: cell-based; details: Homo sapiens, HT-29, Colon Cancer
Procedure: as §1, §2

[24] = tested on: OVCAR-4; experiment: Growth inhibition GI50, OVCAR-4; assay type: cell-based; details: Homo sapiens, Ovarian Cancer
Procedure: as §1, §2

[25] = tested on: K-562; experiment: Growth inhibition GI50, K-562; assay type: cell-based; details: Homo sapiens, K562, Leukemia
Procedure: as §1, §2

[26] = tested on: MOLT-4; experiment: Growth inhibition GI50, MOLT-4; assay type: cell-based; details: Homo sapiens, Leukemia
Procedure: as §1, §2

[27] = tested on: UACC-62; experiment: Growth inhibition GI50, UACC-62; assay type: cell-based; details: Homo sapiens, Melanoma
Procedure: as §1, §2

[28] = tested on: MDA-MB-468; experiment: Growth inhibition GI50, MDA-MB-468; assay type: cell-based; details: Homo sapiens, Breast Cancer
Procedure: as §1, §2

[29] = tested on: NCI-H460; experiment: Growth inhibition GI50, NCI-H460; assay type: cell-based; details: Homo sapiens, Non-Small Cell Lung Cancer
Procedure: as §1, §2

[30] = tested on: HS 578T; experiment: Growth inhibition GI50, HS 578T; assay type: cell-based; details: Homo sapiens, Breast Cancer
Procedure: as §1, §2

COc1ccc([N+](=O)[O-])c(S(=O)(=O)c2ccc(Cl)cc2)n1 [Example 1, 2-((4-Chlorophenyl)sulphonyl)-6-methoxy-3-nitropyridine Hydrochloride]
GI50 [1]: 12 µM | IC50 ([2]; Biological Example 1, 2 nM GR, 15 minutes incubation): > 100 µM | IC50 ([2]; Biological Example 4): > 100 µM | GI50 [3]: 17.3 µM | GI50 [4]: 2.08 µM | GI50 [5]: 12.2 µM | IC50 [6]: 2.99 µM | GI50 [7]: 15.1 µM | GI50 [8]: 3.38 µM | GI50 [9]: 2 µM | GI50 [10]: 3.13 µM | GI50 [11]: 1.96 µM | GI50 [12]: 1.86 µM | GI50 [13]: 2.24 µM | GI50 [14]: 2.51 µM | GI50 [15]: 2.93 µM | GI50 [16]: 18.5 µM | GI50 [17]: 4.45 µM | GI50 [18]: 2.12 µM | GI50 [19]: 3.57 µM | GI50 [20]: 13 µM | GI50 [21]: 1.75 µM | GI50 [22]: 3.39 µM | GI50 [23]: 3.34 µM | GI50 [24]: 2.32 µM | GI50 [25]: 3.02 µM | GI50 [26]: 3.59 µM | GI50 [27]: 3.56 µM | GI50 [28]: 1.93 µM | GI50 [29]: 14.6 µM | GI50 [30]: 13 µM
